The subject of assay [1] is PBMC of subjects previously immunized with MMR-II vaccine. The experiment in a line: T cell proliferation assay ([3H]-thymidine, 4 days, SI>2 positive), Example 3. Conditions: for subjects with stimulation index greater than 2 (positive lymphoproliferative response) / stimulation index, median / stimulation index, range: 131 subjects (MV-P2 130, MV-F 43); for stimulation index, median / stimulation index, range: peptides 20 μg/ml, MV 50 pfu/ml, 4 days.
Method: Briefly, study participants were enrolled as part of a larger stratified random sample study to assess associations between HLA genes and immune response to measles-mumps-rubella-II (MMR-II) vaccine in healthy, school-age children and young adults (ages 12 to 18 years). To evaluate the cellular responses to measles peptides, 131 subjects were used. In addition, a random subset of 43 individuals was tested for reactivity to a control measles fusion (F) peptide. All enrolled subjects had been previously immunized with two doses of MMR-II vaccine (Merck Research, West Point, Pa.) containing the attenuated Edmonston strain of MV. All but four of these participants were Caucasian and all subjects resided in a geographic area where no wild-type MV had circulated in the community during the subjects' lifetimes.
In brief, peripheral blood mononuclear cells (PBMC) were separated from heparinized blood by Ficoll-Hypaque (Sigma, St. Louis, Mo.) density gradient centrifugation and washed in RPMI 1640 medium (Celox Laboratories, Inc., St. Paul, Minn.) supplemented with 2 mM L-glutamine, 100 μg/ml streptomycin, 100 U/ml penicillin and 8% fetal calf serum (Life Technologies, Gaithersburg, Md.). Measles virus, MV-P1, MV-P2, and MV-F specific T cell responses were measures by proliferation of PBMC (2×10^5) incubated in RPMI-1640 medium, supplemented with 5% autologous sera, with live attenuated MV (50 pfu/ml, positive control) or synthetic peptides (20 μg/ml) compared to unstimulated cell control wells. Phytohemagglutinin (PHA, 5 μg/ml) was used to assess cell vitality. Only assays in which PBMC responded to PHA were accepted. T lymphocyte proliferation was measured after 4 days by [^3H]-tritiated thymidine uptake. Cells were then harvested onto glass fiber filters, using a 96-well harvesting system (Skatron Instruments, Norway). The amount of incorporated radioactivity was determined by a liquid scintillation counter (Packard Instrument Company, Boston, Mass.). We used six replicates of counts per minute (cpm) values for unstimulated cells, and three replicates each for T cells stimulated with peptides and live measles vaccine. For each subject, median cpm were calculated for unstimulated cells, as well as for cells stimulated with MV-P1, MV-P2, MV-F and measles. Results were then expressed as antigen-specific stimulation indices (SI), defined as the ratio of the median cpm of antigen-stimulated wells to the median cpm of unstimulated control wells. […] SI>2 was arbitrarily selected prior to the study as an indication of the presence of reactive peptide specific memory T cells, and SI<2 as an indicator of the lack of memory T lymphocytes to measles-derived peptides (Pauksen, et al., Bone Marrow Transplant 20:317-323, 1997).
Three outcomes were of primary interest: T cell proliferation (as measured by stimulation indices) induced separately by live MV, the MV-P1 peptide, and the MV-P2 peptide variant. Data were descriptively summarized using frequencies and percentages for all categorical variables, and medians and ranges for all continuous variables.

Assay [2] concerns PBMC from subjects previously immunized with MMR-II vaccine. The assay can be described thus: T cell proliferation assay ([3H]-thymidine, 3 days, SI cut point 3.0), Example 1. The format is cell-based, human. An excerpt:
Study participants included ninety-five healthy residents of Olmsted County, Minn., aged 11 to 18 years. […] Mononuclear leukocytes were isolated by Ficoll-Hypaque (Amersham) density gradient centrifugation.
For descriptive analyses, we used medians and ranges for continuous variables and frequencies for categorical variables. We compared cpm for MV-stimulated, MV-P1-stimulated and MV-P2-stimulated cells with unstimulated cells using Wilcoxon signed rank tests. Associations between the continuously distributed stimulation indices for MV-P1, MV-P2 peptides, and MV were determined using Spearman rank correlation coefficients. Stimulation indices were subsequently dichotomized into positive or negative using a cut point of 3.0. We then compared MV positivity with MV-P1 and MV-P2 positivity using estimates of sensitivity.

Assay [3] concerns PBMC of subjects previously immunized with MMR-II vaccine. The assay can be described thus: IL-4 supernatant cytokine response (ELISA) to measles virus and synthetic measles peptides. Format: cell-based, human. Conditions: for Median secretion value IL-4: stimulated minus control cells. The procedure: (§1) To evaluate the immunogenicity of measles-derived peptides, 281 of these subjects (age 12 to 18 years) were studied.
(§2) Cryopreserved PBMC were used to measure cytokine responses to measles-derived peptides. We thawed cryopreserved PBMC at a concentration of 1×10^7 cells/mL using standard protocol. The vials were rapidly thawed in a 37° C. water bath and then washed twice with 10× volume of complete RPMI 1640 media supplemented with 10% FCS at 700 rpm for 5 minutes. The final cell pellet was resuspended in complete RPMI media containing penicillin-streptomycin (100 U/mL) and supplemented with 5% normal human AB sera (Ervin Sci., Santa Ana, Calif.). For IFN-γ determination, thawed PBMC were cultured at a concentration of 2×10^5 in RPMI containing 5% normal human AB sera with or without measles peptides (10 μg/well) and MV (positive control) at a moi of 0.5 for 6 days. For IL-4 determination in cell culture supernatants, we cultured thawed PBMC at a concentration of 4×10^5 in RPMI media, supplemented with 5% normal human AB sera. Cells were cultured in the presence of 2 μg/mL of IL-4 receptor antibody (R&D Systems, Minneapolis, Minn.) (Ekerfelt, et al., J. Immunol. Methods 260:55-67, 2002) with or without synthetic measles-derived peptides (10 μg/well) and MV (positive control) at a moi of 0.1 for 6 days. Cell culture supernatants were collected in a volume of 150 μl/well for both IFN-γ and IL-4 and were frozen at […] until assayed. The culture supernatants were assayed using a standard ELISA protocol (OptiEtA Human IFN-γ and IL-4, PharMingen, San Diego, Calif.) at a dilution of 1:1 in PBS containing 10% FCS. ELISA plates (Immulon-4, DYNEX Technologies Inc, Chantilly, Va.) were coated with capture IFN-γ or IL-4 mAb and incubated overnight at 4° C. The antibody-coated plates were incubated with diluted supernatant samples for 2 hours at room temperature followed by incubation with biotinylated mouse anti-human IFN-γor IL-4 conjugated to avidin-horseradish peroxidase for 1 hour at room temperature. The absorbance of the product was read using a microplate reader (Molecular Devices, Sunnyvale, Calif.) at 450 nm. The IFN-γ and IL-4 concentration of test samples was calculated by reference to the standard curve. Unstimulated and MV-stimulated secretion measurements for IFN-γ were performed in triplicate, while all other secretion measurements for both IFN-γ and IL-4 were performed in duplicate. Individual-specific values were then summarized by taking means of the duplicate or triplicate values. Mean background levels of IFN-γ and IL-4 cytokine production in cultures not stimulated with measles peptides or MV was subtracted from the mean antigen-induced responses to produce “corrected” secretion values. Negative corrected values indicate that the unstimulated secretion levels were, on average, higher than the stimulated secretion levels.
(§3) Two criteria were established to define positive responses for secreted IFN-γ and IL-4 cytokines using ELISA.
(An ELISA detects its analyte on a solid surface through an enzyme-linked reagent.)

The test system is the same in assay [4]. The experiment in a line: IFN-γ supernatant cytokine response (ELISA) to measles virus and synthetic measles peptides. The format is cell-based, human. The conditions noted are these: for Median secretion value IFN-γ: stimulated minus control cells. The procedure: as §1, §2, §3
Setting [5] is: 281 subjects, stimulated cells minus unstimulated cells.
Setting [6] is: 95 subjects, peptides 20 μg/ml, MV 50 PFU/well.

Regarding “MV-F: randomly chosen 14 amino acid control peptide of the MV F protein (PLRHQATTASSTKP) [reference compound]”, in assay [1], the “subjects with stimulation index greater than 2 (positive lymphoproliferative response)” value is 11%; the “stimulation index, median” value was 1; the “stimulation index, range” value is reported as 0-3. Besides, in assay [2] (irrelevant control peptide, data not shown), the “proliferation in immunized healthy subjects” value is recorded as “little or no proliferation”.

For the compound SAGKVSSTLASELG [MV-N], the “IL-4 % Response (>10 pg/mL)” value in assay [3] (281 subjects, peptides 10 μg/well, MV moi 0.1, 6 days) worked out at 23.1%. The “IL-4 Median level” value in assay [3] (setting [5]) amounted to 2.8 pg/mL. Moreover, the “Median secretion value IL-4” value is -0.5 pg/mL in assay [3] (All other HLA-DRB1 alleles); 4.3 pg/mL in assay [3] (HLA-DRB1 allele *0101); 4.6 pg/mL in assay [3] (HLA-DRB1 allele *0102); 1.3 pg/mL in assay [3] (HLA-DRB1 allele *0103); 2.8 pg/mL in assay [3] (HLA-DRB1 allele *0301); 4.3 pg/mL in assay [3] (HLA-DRB1 allele *0401). In addition, the “Median secretion value IL-4” value in assay [3] (HLA-DRB1 allele *0402) was -1.0 pg/mL; in assay [3] (HLA-DRB1 allele *0404) it was 0.0 pg/mL; in assay [3] (HLA-DRB1 allele *0407), 4.6 pg/mL; in assay [3] (HLA-DRB1 allele *0701) it was 1.7 pg/mL; in assay [3] (HLA-DRB1 allele *0801) it was 1.7 pg/mL; in assay [3] (HLA-DRB1 allele *0901), -1.6 pg/mL. The “Median secretion value IL-4” value in assay [3] (HLA-DRB1 allele *1001) turned out to be 2.1 pg/mL; in assay [3] (HLA-DRB1 allele *1101) it was 4.4 pg/mL; in assay [3] (HLA-DRB1 allele *1103) it was 15.5 pg/mL; in assay [3] (HLA-DRB1 allele *1104), 4.4 pg/mL; in assay [3] (HLA-DRB1 allele *1201) it was 5.4 pg/mL; in assay [3] (HLA-DRB1 allele *1301), 3.6 pg/mL. The “Median secretion value IL-4” value in assay [3] (HLA-DRB1 allele *1302) is 2.2 pg/mL; in assay [3] (HLA-DRB1 allele *1303), -12.9 pg/mL; in assay [3] (HLA-DRB1 allele *1401), 3.7 pg/mL; in assay [3] (HLA-DRB1 allele *1501), 3.2 pg/mL; in assay [3] (HLA-DRB1 allele *03011), 1.7 pg/mL; in assay [3] (Overall (281)) it was 2.8 pg/mL. Also, the “MV-P IL-4 responders in whom peptide-specific IL-4 responses were also detected” value in assay [3] (among the 54 subjects who responded to the MV-P peptide) is recorded as “half”. Moreover, the “MV IL-4 responders who also responded to the peptide” value in assay [3] (among the 143 subjects with IL-4 production from MV-stimulated PBMC) is 28.7%. Further, the “IFN-γ % Response (>20 pg/mL)” value in assay [4] (281 subjects, peptides 10 μg/well, MV moi 0.5, 6 days) is listed as 15.3%. Besides, the “IFN-γ Median level” value in assay [4] (setting [5]) stood at 1.9 pg/mL. Moreover, the “Median secretion value IFN-γ” value in assay [4] (All other HLA-DRB1 alleles) is 4.1 pg/mL; in assay [4] (HLA-DRB1 allele *0101), -1.8 pg/mL; in assay [4] (HLA-DRB1 allele *0102), 7.6 pg/mL; in assay [4] (HLA-DRB1 allele *0103) it was 2.4 pg/mL; in assay [4] (HLA-DRB1 allele *0301), 1.8 pg/mL; in assay [4] (HLA-DRB1 allele *0401) it was -0.7 pg/mL. Besides, the “Median secretion value IFN-γ” value was 10.6 pg/mL in assay [4] (HLA-DRB1 allele *0402); 2.8 pg/mL in assay [4] (HLA-DRB1 allele *0404); 8.4 pg/mL in assay [4] (HLA-DRB1 allele *0407); -1.1 pg/mL in assay [4] (HLA-DRB1 allele *0701); 4.1 pg/mL in assay [4] (HLA-DRB1 allele *0801); 3.1 pg/mL in assay [4] (HLA-DRB1 allele *0901). For the same compound, the “Median secretion value IFN-γ” value is -1.8 pg/mL in assay [4] (HLA-DRB1 allele *1001); -4.4 pg/mL in assay [4] (HLA-DRB1 allele *1101); 3.0 pg/mL in assay [4] (HLA-DRB1 allele *1103); 3.1 pg/mL in assay [4] (HLA-DRB1 allele *1104); -4.5 pg/mL in assay [4] (HLA-DRB1 allele *1201); 2.2 pg/mL in assay [4] (HLA-DRB1 allele *1301). In addition, the “Median secretion value IFN-γ” value in assay [4] (HLA-DRB1 allele *1302) is -1.9 pg/mL; in assay [4] (HLA-DRB1 allele *1303), 13.1 pg/mL; in assay [4] (HLA-DRB1 allele *1401), 0.2 pg/mL; in assay [4] (HLA-DRB1 allele *1501), 4.1 pg/mL; in assay [4] (HLA-DRB1 allele *03011), 9.1 pg/mL; in assay [4] (Overall (281)), 1.9 pg/mL. Besides, in assay [4] (among the 157 subjects who responded to the MV-P peptide), the “MV-P IFN-γ responders who also produced IFN-γ to the peptide” value is recorded as 21%. The “MV IFN-γ responders who also produced IFN-γ to the peptide” value in assay [4] (among the 185 subjects who responded to MV) worked out at 21.1%.

Turning to `CC[C@H](C)[C@H](NC(=O)[C@H](CCC(=O)O)NC(=O)CNC(=O)CNC(=O)[C@H](CCC(=O)O)NC(=O)[C@H](C)NC(=O)[C@@H](NC(=O)[C@H](CCC(=O)O)NC(=O)[C@@H](NC(=O)[C@H](CC(=O)O)NC(=O)[C@H](CO)NC(=O)[C@H](C)N)C(C)C)[C@@H](C)O)C(=O)N[C@@H](Cc1c[nH]cn1)C(=O)N[C@@H](CCCCN)C(=O)N[C@@H](CC(C)C)C(=O)N[C@@H](CC(C)C)C(=O)N[C@@H](CCCNC(=N)N)C(=O)N[C@@H](CC(C)C)C(=O)N[C@@H](CCC(N)=O)C(=O)O` [MV-P2], in assay [1], the “subjects with stimulation index greater than 2 (positive lymphoproliferative response)” value turned out to be 17%; the “stimulation index, median” value is listed as 1.2; the “stimulation index, range” value is reported as 0.4-16.2. Also, the “MV-P1 responders who also responded to the peptide” value in assay [1] (among the 52 subjects who responded to the MV-P1 peptide) is reported as 23%. Also, the “subjects with stimulation index greater than 3.0 (recognized)” value in assay [2] (95 subjects) is recorded as 5%. In assay [2] (setting [6]), the “stimulation index, median” value was 1.2 and the “stimulation index, range” value was 0.5-16.2. Moreover, in assay [2] (95 subjects, peptides 20 μg/ml, live attenuated MV 50 PFU/well, 3 days), the “median cpm value, lymphoproliferative assay” value was 359 cpm.

These data come from US8221762B2, “Naturally processed measles virus peptides from class II HLA molecules” (priority 2004, dated 2012).
